What all share (experiment): SOS-catalyzed nucleotide exchange assay (Procedure B, BODIPY FL GDP displacement)
Common to all, as to assay type: biochemical

The target in assay [1] is T1, KRAS G12C (amino acids 1-169) (Homo sapiens, UniProt P01116, G12C).
T1 construct: made in house; host or cells: E. coli
The settings on record: Procedure B (Example Nos. 18, 21, 23, 33-34); 1 hour incubation, SOS1 + GMPPNP; read-out: KRAS G12C GNE IC50. As for the experimental part: (§1) Procedure for SOS-Catalyzed Nucleotide Exchange Assay for KRAS-G12C/D/V (Procedure B)
(§2) Recombinant KRAS G12C (amino acids 1-169, SEQ ID NO:8), KRAS G12D (amino acids 1-169, SEQ ID NO:9), KRAS G12V (amino acids 1-169, SEQ ID NO:10) and SOS1 (amino acids 564-1049, SEQ ID NO:11) proteins were expressed in E. coli and purified by affinity chromatography. To prepare each BODIPY™ FL GDP-bound KRAS mutant protein, 50 μM KRAS mutant proteins were incubated with 0.5 mM BODIPY™ FL GDP (Invitrogen, G22360) in a loading buffer (20 mM Tris-HCl pH 7.5, 50 mM NaCl, 1 mM DTT and 2.5 mM EDTA) for 1 hour on ice. After the incubation, MgCl2 was added to a final concentration of 10 mM, followed by an incubation at room temperature for 30 minutes. The mixtures were allowed to pass through a NAP-5 column to remove free nucleotides and purified BODIPY™ FL GDP-bound KRAS G12C, G12D and G12V proteins were used for compound evaluation.
(§3) The inhibitory activity of compounds on recombinant KRAS mutants is measured by the displacement of the bound BODIPY™ GDP. Specifically, 2.5 nM of each BODIPY™ FL GDP-bound KRAS mutant complex was incubated with various concentrations of compound in a reaction buffer (20 mM Tris-HCl pH 7.5, 100 mM NaCl, 1 mM MgCl2, 2 mM DTT, 0.1% Tween 20) at 25° C. for 1 hour. After the incubation, recombinant SOS1 and GMPPNP (Jena Bioscience GmbH, NU-401) were added and incubated at room temperature for 30 minutes to proceed SOS1-dependent GDP-GTP exchange reaction on KRAS mutants. Displacement of BODIPY™ FL GDP by Guanosine-5′-[(β,γ)-imido]triphosphate, Tetralithium salt (GMPPNP) was measured by calculating the ratio of fluorescence intensities of BODIPY™ FL before and after the exchange reaction. […] Dose response curves were analyzed using a 4-parameter logistic model to calculate IC50 values.
(§4) For Example Nos. 1-17, 19-20, 22, 24-32, and 35-53 nucleotide exchange assays for KRAS G12D, G12C, G12V, and G13D were performed according to Procedure A. For Example Nos. 18, 21, 23, and 33-34, nucleotide exchange assays for KRAS G12D, G12C, and G12V were performed according to Procedure B.

In assay [2] the target is T2, KRAS G12D (amino acids 1-169) (Homo sapiens, UniProt P01116, G12D).
T2 construct: made in house; host or cells: E. coli
The following applies: Procedure B (Example Nos. 18, 21, 23, 33-34); 1 hour incubation, SOS1 + GMPPNP; read-out: KRAS G12D GNE IC50. As for the experimental part:
as §1, §2, §3, §4

In assay [3] the target is T3, KRAS G12V (amino acids 1-169) (Homo sapiens, UniProt P01116, G12V).
T3 construct: made in house; host or cells: E. coli
The following applies: Procedure B (Example Nos. 18, 21, 23, 33-34); 1 hour incubation, SOS1 + GMPPNP; read-out: KRAS G12V GNE IC50. As for the experimental part:
as §1, §2, §3, §4

T2 sequence (P01116 with tags, fused parts or gaps isoform P01116-2 G12D): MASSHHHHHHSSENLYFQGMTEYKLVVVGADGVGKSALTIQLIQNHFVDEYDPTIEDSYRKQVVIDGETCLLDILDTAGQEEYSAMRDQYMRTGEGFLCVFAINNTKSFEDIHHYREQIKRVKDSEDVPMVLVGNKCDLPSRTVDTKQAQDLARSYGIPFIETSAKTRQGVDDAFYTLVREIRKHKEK
T1 sequence (P01116 with tags, fused parts or gaps isoform P01116-2 G12C): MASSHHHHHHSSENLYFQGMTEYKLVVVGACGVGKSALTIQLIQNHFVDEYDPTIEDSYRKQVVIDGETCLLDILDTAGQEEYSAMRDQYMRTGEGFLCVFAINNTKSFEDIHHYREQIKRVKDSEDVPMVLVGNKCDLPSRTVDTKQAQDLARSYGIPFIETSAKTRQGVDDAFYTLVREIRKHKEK
T3 sequence (P01116 with tags, fused parts or gaps isoform P01116-2 G12V): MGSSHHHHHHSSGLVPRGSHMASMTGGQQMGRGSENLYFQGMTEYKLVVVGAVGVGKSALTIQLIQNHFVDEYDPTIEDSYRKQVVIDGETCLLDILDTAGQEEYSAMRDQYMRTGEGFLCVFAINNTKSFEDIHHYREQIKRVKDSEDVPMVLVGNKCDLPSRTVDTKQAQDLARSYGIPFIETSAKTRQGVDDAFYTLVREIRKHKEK

For `C[C@H]1CCOCCN1c1nc(OC[C@@]23CCCN2C[C@H](F)C3)nc2c(F)c(-c3ccc(F)c4sc(N)c(C#N)c34)ncc12` [compound 21, 2-amino-7-fluoro-4-(8-fluoro-2-(((2R,7aS)-2-fluorotetrahydro-1H-pyrrolizin-7a(5H)-yl)methoxy)-4-((S)-5-methyl-1,4-oxazepan-4-yl)pyrido[4,3-d]pyrimidin-7-yl)benzo[b]thiophene-3-carbonitrile], the IC50 in assay [1] was 20.8 nM; in assay [2] it was 136 nM; in assay [3], 63.6 nM.
As for `N#Cc1c(N)sc2c(F)ccc(-c3c(Cl)cc4c(N5CCCOCC5)nc(OC[C@@]56CCCN5C[C@H](F)C6)nc4c3F)c12` (single isomer, unassigned) [Ex. 18], the IC50 in assay [1] came out at 2.81 nM; in assay [2] it was 5.34 nM; in assay [3], 2.91 nM.
For `N#Cc1c(N)sc2c(F)cc(F)c(-c3ncc4c(N5CCCOCC5)nc(OC[C@@]56CCCN5C[C@H](F)C6)nc4c3F)c12` [Ex. 23, 2-amino-5,7-difluoro-4-(8-fluoro-2-(((2R,7aS)-2-fluorotetrahydro-1H-pyrrolizin-7a(5H)-yl)methoxy)-4-(1,4-oxazepan-4-yl)pyrido[4,3-d]pyrimidin-7-yl)benzo[b]thiophene-3-carbonitrile], in that order: 33.4 nM, 140 nM and 76.9 nM.
For `N#Cc1c(N)sc2c(F)ccc(-c3c(C(F)(F)F)cc4c(N5CCCOCC5)nc(OC[C@@]56CCCN5C[C@H](F)C6)nc4c3F)c12` [Ex. 34, 2-amino-7-fluoro-4-(8-fluoro-2-(((2R,7aS)-2-fluorotetrahydro-1H-pyrrolizin-7a(5H)-yl)methoxy)-4-(1,4-oxazepan-4-yl)-6-(trifluoromethyl)quinazolin-7-yl)benzo[b]thiophene-3-carbonitrile], in that order: 1.8 nM, 3.43 nM and 1.67 nM.
For `N#Cc1c(N)sc2c(F)ccc(-c3c(Cl)cc4c(N5CCCOCC5)nc(OC[C@]5(CO)CC5(F)F)nc4c3F)c12` (single isomer, unassigned) [Ex. 33], in that order: 1020 nM, 4880 nM and 2230 nM.

For the origin of these results see patent US20260083750A1, “SMALL MOLECULE INHIBITORS OF KRAS PROTEINS” (MERCK SHARP & DOHME LLC, priority 2022, published 2026).
